Experimental data: PubChem BioAssay (NCI)
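All cell lines were grown in 96-well plates and treated with compound for 48 hours. TGI is the concentration that stops growth completely.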

Experiments:
Experiment in all cases: growth of human tumour cells (NCI), 48 h
OVCAR-4 ovarian = test system: OVCAR-4 ovarian
HOP-62 NSCLC = test system: HOP-62 NSCLC
IGROV1 ovarian = test system: IGROV1 ovarian
SK-MEL-28 melanoma = test system: SK-MEL-28 melanoma
SR leukemia = test system: SR leukemia
NCI-H23 lung = test system: NCI-H23 lung
MDA-N = test system: MDA-N
EKVX NSCLC = test system: EKVX NSCLC
SNB-19 CNS = test system: SNB-19 CNS
A549 NSCLC = test system: A549 NSCLC
SK-MEL-5 melanoma = test system: SK-MEL-5 melanoma
T-47D breast = test system: T-47D breast
RPMI-8226 leukemia = test system: RPMI-8226 leukemia
KM12 colon = test system: KM12 colon
786-0 renal = test system: 786-0 renal
DU-145 prostate = test system: DU-145 prostate
MALME-3M melanoma = test system: MALME-3M melanoma
COLO 205 colon = test system: COLO 205 colon
CCRF-CEM leukemia = test system: CCRF-CEM leukemia
NCI-H226 lung = test system: NCI-H226 lung
LOX IMVI melanoma = test system: LOX IMVI melanoma
A498 renal = test system: A498 renal
SNB-75 CNS = test system: SNB-75 CNS
NCI/ADR-RES ovarian = test system: NCI/ADR-RES ovarian
HOP-92 NSCLC = test system: HOP-92 NSCLC
MOLT-4 leukemia = test system: MOLT-4 leukemia
SW-620 colon = test system: SW-620 colon
UACC-257 melanoma = test system: UACC-257 melanoma
UACC-62 melanoma = test system: UACC-62 melanoma
TK-10 renal = test system: TK-10 renal
HS 578T breast = test system: HS 578T breast
NCI-H460 lung = test system: NCI-H460 lung
UO-31 renal = test system: UO-31 renal
ACHN renal = test system: ACHN renal
SK-OV-3 ovarian = test system: SK-OV-3 ovarian
RXF 393 renal = test system: RXF 393 renal
CAKI-1 renal = test system: CAKI-1 renal
MDA-MB-231 breast = test system: MDA-MB-231 breast
PC-3 prostate = test system: PC-3 prostate
SF-539 CNS = test system: SF-539 CNS
OVCAR-3 ovarian = test system: OVCAR-3 ovarian
HT29 colon = test system: HT29 colon
MDA-MB-435 = test system: MDA-MB-435
OVCAR-8 ovarian = test system: OVCAR-8 ovarian
HL-60(TB) leukemia = test system: HL-60(TB) leukemia
SF-295 CNS = test system: SF-295 CNS
K-562 leukemia = test system: K-562 leukemia
HCT-116 colon = test system: HCT-116 colon
MCF7 breast = test system: MCF7 breast
M14 melanoma = test system: M14 melanoma
SN12C renal = test system: SN12C renal
SF-268 CNS = test system: SF-268 CNS
OVCAR-5 ovarian = test system: OVCAR-5 ovarian

## Cc1nnc2n1-c1ccccc1-c1[nH]c3ccccc3c1C2
OVCAR-4 ovarian
  TGI: > 100 µM
HOP-62 NSCLC
  TGI: > 100 µM
IGROV1 ovarian
  TGI: > 100 µM
SK-MEL-28 melanoma
  TGI: > 100 µM
SR leukemia
  TGI: > 100 µM
NCI-H23 lung
  TGI: > 100 µM
MDA-N
  TGI: > 100 µM
EKVX NSCLC
  TGI: > 100 µM
SNB-19 CNS
  TGI: > 100 µM
A549 NSCLC
  TGI: > 100 µM
SK-MEL-5 melanoma
  TGI: > 100 µM
T-47D breast
  TGI: > 100 µM
RPMI-8226 leukemia
  TGI: > 100 µM
KM12 colon
  TGI: > 100 µM
786-0 renal
  TGI: > 100 µM
DU-145 prostate
  TGI: > 100 µM
MALME-3M melanoma
  TGI: > 100 µM
COLO 205 colon
  TGI: > 100 µM
CCRF-CEM leukemia
  TGI: > 100 µM
NCI-H226 lung
  TGI: > 100 µM
LOX IMVI melanoma
  TGI: > 100 µM
A498 renal
  TGI: 78.2 µM
SNB-75 CNS
  TGI: 61.7 µM
NCI/ADR-RES ovarian
  TGI: > 100 µM
HOP-92 NSCLC
  TGI: > 100 µM
MOLT-4 leukemia
  TGI: > 100 µM
SW-620 colon
  TGI: > 100 µM
UACC-257 melanoma
  TGI: > 100 µM
UACC-62 melanoma
  TGI: > 100 µM
TK-10 renal
  TGI: > 100 µM
HS 578T breast
  TGI: > 100 µM
NCI-H460 lung
  TGI: > 100 µM
UO-31 renal
  TGI: > 100 µM
ACHN renal
  TGI: > 100 µM
SK-OV-3 ovarian
  TGI: > 100 µM
RXF 393 renal
  TGI: > 100 µM
CAKI-1 renal
  TGI: > 100 µM
MDA-MB-231 breast
  TGI: > 100 µM
PC-3 prostate
  TGI: > 100 µM
SF-539 CNS
  TGI: > 100 µM
OVCAR-3 ovarian
  TGI: > 100 µM
HT29 colon
  TGI: > 100 µM
MDA-MB-435
  TGI: > 100 µM
OVCAR-8 ovarian
  TGI: > 100 µM
HL-60(TB) leukemia
  TGI: 70.8 µM
SF-295 CNS
  TGI: > 100 µM
K-562 leukemia
  TGI: > 100 µM
HCT-116 colon
  TGI: > 100 µM
MCF7 breast
  TGI: > 100 µM
M14 melanoma
  TGI: > 100 µM
SN12C renal
  TGI: > 100 µM
SF-268 CNS
  TGI: > 100 µM
OVCAR-5 ovarian
  TGI: > 100 µM
